Square brackets hold non-standard residues; d marks the D form.
Tests used:
[1] = molecular target: L-form of SARS-CoV-2 HR1 (SARS CoV-2 HR1-biotin) (Severe acute respiratory syndrome coronavirus 2, UniProt P0DTC2); experiment: biochemical; format: binding
[2] = system: SARS CoV-2 pseudotyped lentivirus; format: cell-based; conditions: read-out: observed IC50, inhibition of pseudotyped virus infection
[3] = molecular target: D-form of SARS-CoV-2 HR1 (SARS CoV-2 D-HR1-biotin) (Severe acute respiratory syndrome coronavirus 2, UniProt P0DTC2); format: binding

Substance	Kd [1] [nM]	IC50 [2] [nM]	affinity for SARS CoV-2 D-HR1-biotin compared with parental SEQ ID NO: 11 [3]
[dA][dT][dV][dK][dF][dT][dY][dQ]G[dE][dE][dK][dQ][dV][dD][dI][dS][dK][dI][dK][dY][dV][dL][dR][dI]G[dQ][dA][dI][dW][dF][dR][dY][dD][dE]GGG[dA][dI]G[dN]G[dW][dV][dS][dE][dK][dD][dA][dP][dK][dE][dL][dL][dQ][dM][dL][dE][dK][dQ] [SEQ ID NO:12]	814	2200	
ATVKFTYQGEEKQVDISKIKYVLRIGQAIWFRYDEGGGAIGNGWVSEEDAPKELLQMLGKR [SEQ ID NO:53]			higher affinity
ATVKFTYQGEEKQVDISKIKYVLRIGQAIWFRYDEGGGAIGNGWVSEEDAPKELLQMLEKR [SEQ ID NO:51]			higher affinity

Source: US11834480B2 (priority 2020, dated 2023)
